In assay [1] the target is T1, UDP-glucose 4-epimerase (EhGalE) (Entamoeba histolytica, UniProt C4M746).
T1 construct: gene EHI_192050; full-length recombinant EhGalE (XP_650346) with N-terminal Strep-tag and Gly-Gly-Gly-Ser linker
T1 sequence (C4M746 1-341): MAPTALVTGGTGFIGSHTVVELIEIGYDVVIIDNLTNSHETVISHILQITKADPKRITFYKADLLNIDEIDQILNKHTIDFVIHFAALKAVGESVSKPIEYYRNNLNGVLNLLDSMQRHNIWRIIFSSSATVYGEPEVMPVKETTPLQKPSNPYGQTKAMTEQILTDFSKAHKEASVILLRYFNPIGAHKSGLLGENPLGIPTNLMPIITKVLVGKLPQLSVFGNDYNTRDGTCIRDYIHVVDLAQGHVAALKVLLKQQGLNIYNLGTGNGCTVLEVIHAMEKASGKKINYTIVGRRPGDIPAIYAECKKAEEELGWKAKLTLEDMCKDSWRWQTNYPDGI
As to the kind of experiment: RP-HPLC of UDP-Gal to UDP-Glc conversion by purified recombinant enzyme after […] min preincubation. It counts as biochemical.

The target in assay [2] is T2, UDP-glucose 6-dehydrogenase (HsUGDH) (Homo sapiens, UniProt O60701).
T2 construct: gene UGDH; recombinant HsUGDH with N-terminal Strep-tag and four-residue linker
T2 sequence (O60701 1-494): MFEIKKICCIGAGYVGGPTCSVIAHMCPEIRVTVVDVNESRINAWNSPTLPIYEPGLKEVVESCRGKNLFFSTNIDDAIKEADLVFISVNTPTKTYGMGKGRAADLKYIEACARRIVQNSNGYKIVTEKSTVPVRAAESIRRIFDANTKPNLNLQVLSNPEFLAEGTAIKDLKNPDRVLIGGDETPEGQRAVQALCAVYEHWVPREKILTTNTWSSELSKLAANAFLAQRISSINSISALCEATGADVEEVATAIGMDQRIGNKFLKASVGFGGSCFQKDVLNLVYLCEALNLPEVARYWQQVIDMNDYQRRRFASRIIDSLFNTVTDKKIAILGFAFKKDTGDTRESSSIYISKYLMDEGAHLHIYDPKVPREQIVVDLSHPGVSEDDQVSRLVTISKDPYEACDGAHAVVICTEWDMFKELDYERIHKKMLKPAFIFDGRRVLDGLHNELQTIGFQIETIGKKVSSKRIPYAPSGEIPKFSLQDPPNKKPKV
Briefly: spectrophotometric assay, helper enzyme inhibited (no numbers shown). It counts as biochemical.

This is an account of results in article PMC10482301 (PLOS Neglected Tropical Diseases, 2023).

Broadly, the IC50 is the concentration that inhibits the measured activity by half.

Take `O=c1c2ccccc2[se]n1-c1ccccc1` [ebselen]: in assay [1], the IC50 amounted to 2190 nM. Besides, the “spectrophotometric assay, helper enzyme inhibited (no numbers shown)” value in assay [2] is reported as “the helper enzyme UGDH was inhibited by all three compounds”.
Turning to `CC/C(=C(/CC)c1ccc(O)cc1)c1ccc(O)cc1` [diethylstilbestrol], in assay [2], the “spectrophotometric assay, helper enzyme inhibited (no numbers shown)” value is reported as “the helper enzyme UGDH was inhibited by all three compounds”.
Still for that read-out and setting: for `C=C(CC)C(=O)c1ccc(OCC(=O)O)c(Cl)c1Cl` [ethacrynic acid] the value was “the helper enzyme UGDH was inhibited by all three compounds”.
